Reference: PMC12503911, “Cytotoxicity of Atropisomeric [1,1′‐Binaphthalene]‐2,2′‐Diamines (BINAM) and Analogs in Human Cancer Cells: Enantioselectivity, Structure–Activity Relationships, and Mechanism” (Chemmedchem, 2025)

Tests used:
ASK1 [1] = target: T1, ASK1 (Homo sapiens, UniProt Q99683); experiment: […]PanQinase radiometric kinase assay (Reaction Biology); assay type: biochemical; settings: read-out: Residual activities [% of control] / 1(R) 10 μM
T1 construct: gene MAP3K5
T1 sequence (Q99683 1-1374): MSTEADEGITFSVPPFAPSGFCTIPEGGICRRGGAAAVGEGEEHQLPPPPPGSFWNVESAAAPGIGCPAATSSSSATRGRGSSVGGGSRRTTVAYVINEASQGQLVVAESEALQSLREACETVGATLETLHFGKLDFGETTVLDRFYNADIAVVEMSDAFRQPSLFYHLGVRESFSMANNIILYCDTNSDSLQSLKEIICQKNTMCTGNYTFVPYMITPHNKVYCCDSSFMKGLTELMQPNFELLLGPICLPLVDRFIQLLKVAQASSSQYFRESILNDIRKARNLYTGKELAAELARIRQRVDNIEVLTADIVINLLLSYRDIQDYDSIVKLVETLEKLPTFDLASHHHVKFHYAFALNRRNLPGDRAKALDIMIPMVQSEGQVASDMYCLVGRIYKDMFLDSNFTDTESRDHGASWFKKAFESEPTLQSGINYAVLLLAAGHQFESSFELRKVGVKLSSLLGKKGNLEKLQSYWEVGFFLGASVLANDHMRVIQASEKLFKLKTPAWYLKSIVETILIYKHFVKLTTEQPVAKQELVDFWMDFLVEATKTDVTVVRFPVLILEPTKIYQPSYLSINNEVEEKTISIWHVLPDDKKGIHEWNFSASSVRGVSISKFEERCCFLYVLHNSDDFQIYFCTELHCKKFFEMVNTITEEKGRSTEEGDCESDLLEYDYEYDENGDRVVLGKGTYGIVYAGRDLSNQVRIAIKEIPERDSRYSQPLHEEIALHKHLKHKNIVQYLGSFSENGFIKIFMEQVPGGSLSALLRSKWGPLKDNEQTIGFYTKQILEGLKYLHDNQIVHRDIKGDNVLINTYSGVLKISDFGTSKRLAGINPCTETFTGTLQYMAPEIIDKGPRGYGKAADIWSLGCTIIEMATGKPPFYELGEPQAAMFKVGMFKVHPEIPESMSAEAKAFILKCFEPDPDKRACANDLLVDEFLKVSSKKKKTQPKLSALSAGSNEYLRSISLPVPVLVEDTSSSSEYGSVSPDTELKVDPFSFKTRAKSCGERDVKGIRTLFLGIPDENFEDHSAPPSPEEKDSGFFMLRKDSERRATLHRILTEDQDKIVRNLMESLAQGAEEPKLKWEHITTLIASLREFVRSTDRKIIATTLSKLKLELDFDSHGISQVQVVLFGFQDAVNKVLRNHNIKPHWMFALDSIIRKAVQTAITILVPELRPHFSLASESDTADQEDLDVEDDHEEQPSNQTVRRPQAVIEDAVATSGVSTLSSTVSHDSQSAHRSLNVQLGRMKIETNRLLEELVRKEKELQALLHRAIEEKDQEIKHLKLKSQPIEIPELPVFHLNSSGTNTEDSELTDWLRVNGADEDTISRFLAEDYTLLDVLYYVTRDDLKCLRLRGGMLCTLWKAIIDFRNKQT

AuroraA [2] = target: T2, AuroraA (Homo sapiens, UniProt O14965); experiment: as above; assay type: biochemical; settings: read-out: Residual activities [% of control] / 1(R) 10 μM
T2 construct: gene AURKA
T2 sequence (O14965 1-403): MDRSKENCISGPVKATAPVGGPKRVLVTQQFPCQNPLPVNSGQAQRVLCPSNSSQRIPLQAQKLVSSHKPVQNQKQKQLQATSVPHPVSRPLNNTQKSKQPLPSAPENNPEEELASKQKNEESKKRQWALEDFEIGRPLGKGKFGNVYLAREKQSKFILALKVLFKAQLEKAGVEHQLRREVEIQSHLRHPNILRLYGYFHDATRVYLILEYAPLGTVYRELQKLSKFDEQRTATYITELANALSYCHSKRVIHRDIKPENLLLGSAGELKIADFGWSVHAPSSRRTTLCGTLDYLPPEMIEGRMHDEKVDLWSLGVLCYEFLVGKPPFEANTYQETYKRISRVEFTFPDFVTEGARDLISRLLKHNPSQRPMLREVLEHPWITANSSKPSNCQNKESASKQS

AuroraA [3] = target: T2, AuroraA; experiment: biochemical; design: 33PanQinase radiometric kinase activity assay, residual activity in % of control, contract lab Reaction Biology; settings: mean of intraexperimental duplicates, n = 1; read-out: Residual activities [% of control] / 1(S) 10 µM
ASK1 [4] = target: T1, ASK1; experiment: biochemical; design: 33PanQinase radiometric kinase activity assay, residual activity in % of control, contract lab Reaction Biology; settings: mean of intraexperimental duplicates, n = 1; read-out: Residual activities [% of control] / 1(S) 10 µM

| remaining activity at 10 µM (ASK1 [1]) [%] | remaining activity at 10 µM (AuroraA [2]) [%] | remaining activity at 10 µM (AuroraA [3]) [%] | remaining activity at 10 µM (ASK1 [4]) [%] | SMILES |
| --- | --- | --- | --- | --- |
| 90 | 86 | – | – | Nc1ccc2ccccc2c1-c1c(N)ccc2ccccc12 [1(R), (R)‐[1,1′‐binaphthalene]‐2,2′‐diamine] |
| – | – | 98 | 117 | Nc1ccc2ccccc2c1-c1c(N)ccc2ccccc12 [1(S), S‐BINAM] |
